Laboratory results taken from ChEMBL document CHEMBL3885861, “Open TG-GATES”.

Organism: Rattus norvegicus
Assay: Open TG-GATES - Regimen: Single
Type: toxicity, organism-based, Sprague-Dawley
Set-up: regimen Single, gender Male, age 6 weeks
Details: in vivo, po, 450 mg/kg, route gavage, dose level Low; for APTT / Bas / Eos / Fbg / Hb / Ht / Lym / MCH / MCHC / MCV / Mono / Neu / Plat / RBC / Ret / WBC: tissue Blood; for KIDNEY_L / KIDNEY_R / KIDNEY_TOTAL: tissue Kidney; for LIVER: tissue Liver; for ALP / ALT / AST / BUN / CRE / Ca / Cl / DBIL / GLC / IP / K / LDH / Na / PL / RALB / TBIL / TC / TG / TP / gamma-GTP: tissue Plasma

Structure (SMILES): CC(=O)Oc1ccccc1C(=O)O [ASPIRIN]
- TERMINAL_BW (3 h): 217.1 g
- APTT (3 h): 19.8 s
- Bas (3 h): 0%
- Eos (3 h): 1%
- Fbg (3 h): 230.2 mg/dL
- Hb (3 h): 13.8 g/dL
- Ht (3 h): 38.5%
- Lym (3 h): 70%
- MCH (3 h): 21.2 pg
- MCHC (3 h): 36%
- MCV (3 h): 59 fL
- Mono (3 h): 3.4%
- Neu (3 h): 24.4%
- Plat (3 h): 136.3 x10_4/uL
- RBC (3 h): 653 x10_4/ul
- Ret (3 h): 7.3%
- WBC (3 h): 89.4 x10_2/uL
- KIDNEY_L (3 h): 0.9 g
- KIDNEY_R (3 h): 0.9 g
- KIDNEY_TOTAL (3 h): 1.8 g
- LIVER (3 h): 8.7 g
- ALP (3 h): 1084 IU/L
- ALT (3 h): 45 IU/L
- AST (3 h): 85.8 IU/L
- BUN (3 h): 14.4 mg/dL
- CRE (3 h): 0.4 mg/dL
- Ca (3 h): 9 mg/dL
- Cl (3 h): 103.6 meq/L
- DBIL (3 h): 0.06 mg/dL
- GLC (3 h): 189.2 mg/dL
- IP (3 h): 8.7 mg/dL
- K (3 h): 3.3 meq/L
- LDH (3 h): 228.8 IU/L
- Na (3 h): 141.2 meq/L
- PL (3 h): 96.6 mg/dL
- RALB (3 h): 3.6 g/dL
- TBIL (3 h): 0.1 mg/dL
- TC (3 h): 60.4 mg/dL
- TG (3 h): 20.4 mg/dL
- TP (3 h): 5.7 g/dL
- gamma-GTP (3 h): 1.2 IU/L
- TERMINAL_BW (6 h): 218.6 g
- APTT (6 h): 21.5 s
- Bas (6 h): 0%
- Eos (6 h): 0.8%
- Fbg (6 h): 230.4 mg/dL
- Hb (6 h): 13.9 g/dL
- Ht (6 h): 38.2%
- Lym (6 h): 71%
- MCH (6 h): 22.2 pg
- MCHC (6 h): 36.3%
- MCV (6 h): 61.1 fL
- Mono (6 h): 3.2%
- Neu (6 h): 24%
- Plat (6 h): 124.8 x10_4/uL
- RBC (6 h): 626.8 x10_4/ul
- Ret (6 h): 8.1%
- WBC (6 h): 90.8 x10_2/uL
- KIDNEY_L (6 h): 1 g
- KIDNEY_R (6 h): 1 g
- KIDNEY_TOTAL (6 h): 2 g
- LIVER (6 h): 9 g
- ALP (6 h): 834.4 IU/L
- ALT (6 h): 34.8 IU/L
- AST (6 h): 72.6 IU/L
- BUN (6 h): 14.6 mg/dL
- CRE (6 h): 0.4 mg/dL
- Ca (6 h): 9.2 mg/dL
- Cl (6 h): 105 meq/L
- DBIL (6 h): 0.056 mg/dL
- GLC (6 h): 204 mg/dL
- IP (6 h): 7.7 mg/dL
- K (6 h): 3.4 meq/L
- LDH (6 h): 221.2 IU/L
- Na (6 h): 141 meq/L
- PL (6 h): 113.2 mg/dL
- RALB (6 h): 3.5 g/dL
- TBIL (6 h): 0.1 mg/dL
- TC (6 h): 67.8 mg/dL
- TG (6 h): 32.8 mg/dL
- TP (6 h): 5.6 g/dL
- gamma-GTP (6 h): 1 IU/L
- TERMINAL_BW (9 h): 215.1 g
- APTT (9 h): 21.4 s
- Bas (9 h): 0%
- Eos (9 h): 0.8%
- Fbg (9 h): 220.4 mg/dL
- Hb (9 h): 13.6 g/dL
- Ht (9 h): 38.2%
- Lym (9 h): 68.2%
- MCH (9 h): 21.9 pg
- MCHC (9 h): 35.5%
- MCV (9 h): 61.8 fL
- Mono (9 h): 2.2%
- Neu (9 h): 28%
- Plat (9 h): 124.6 x10_4/uL
- RBC (9 h): 619.4 x10_4/ul
- Ret (9 h): 8.4%
- WBC (9 h): 94.9 x10_2/uL
- KIDNEY_L (9 h): 1 g
- KIDNEY_R (9 h): 1 g
- KIDNEY_TOTAL (9 h): 1.9 g
- LIVER (9 h): 7.9 g
- ALP (9 h): 828 IU/L
- ALT (9 h): 34.4 IU/L
- AST (9 h): 77.4 IU/L
- BUN (9 h): 13.2 mg/dL
- CRE (9 h): 0.4 mg/dL
- Ca (9 h): 9.1 mg/dL
- Cl (9 h): 106.8 meq/L
- DBIL (9 h): 0.05 mg/dL
- GLC (9 h): 201.2 mg/dL
- IP (9 h): 8.3 mg/dL
- K (9 h): 3.4 meq/L
- LDH (9 h): 210.2 IU/L
- Na (9 h): 141.2 meq/L
- PL (9 h): 93.4 mg/dL
- RALB (9 h): 3.3 g/dL
- TBIL (9 h): 0.096 mg/dL
- TC (9 h): 55.2 mg/dL
- TG (9 h): 12.6 mg/dL
- TP (9 h): 5.4 g/dL
- gamma-GTP (9 h): 0.8 IU/L
- TERMINAL_BW (24 h): 217.9 g
- APTT (24 h): 24.7 s
- Bas (24 h): 0.4%
- Eos (24 h): 1%
- Fbg (24 h): 222 mg/dL
- Hb (24 h): 14.4 g/dL
- Ht (24 h): 38.6%
- Lym (24 h): 79.8%
- MCH (24 h): 22.7 pg
- MCHC (24 h): 37.2%
- MCV (24 h): 60.9 fL
- Mono (24 h): 2.2%
- Neu (24 h): 16.2%
- Plat (24 h): 129 x10_4/uL
- RBC (24 h): 633.6 x10_4/ul
- Ret (24 h): 7.2%
- WBC (24 h): 106.4 x10_2/uL
- KIDNEY_L (24 h): 1 g
- KIDNEY_R (24 h): 1 g
- KIDNEY_TOTAL (24 h): 1.9 g
- LIVER (24 h): 9.2 g
- ALP (24 h): 905.4 IU/L
- ALT (24 h): 43.4 IU/L
- AST (24 h): 82.4 IU/L
- BUN (24 h): 15.8 mg/dL
- CRE (24 h): 0.5 mg/dL
- Ca (24 h): 10.4 mg/dL
- Cl (24 h): 104.6 meq/L
- DBIL (24 h): 0.048 mg/dL
- GLC (24 h): 196.4 mg/dL
- IP (24 h): 8.6 mg/dL
- K (24 h): 3.7 meq/L
- LDH (24 h): 199.2 IU/L
- Na (24 h): 141 meq/L
- PL (24 h): 107 mg/dL
- RALB (24 h): 3.5 g/dL
- TBIL (24 h): 0.092 mg/dL
- TC (24 h): 56 mg/dL
- TG (24 h): 39.6 mg/dL
- TP (24 h): 5.6 g/dL
- gamma-GTP (24 h): 1 IU/L
